These results are taken from BindingDB's records for patent US12071425 (Genentech, 2024).

The target in the test is T1, Serine/threonine-protein kinase/endoribonuclease IRE1 [D688N] (Homo sapiens, UniProt O75460, D688N).
T1 construct: gene ERN1
T1 sequence (O75460 19-977 D688N limits assumed): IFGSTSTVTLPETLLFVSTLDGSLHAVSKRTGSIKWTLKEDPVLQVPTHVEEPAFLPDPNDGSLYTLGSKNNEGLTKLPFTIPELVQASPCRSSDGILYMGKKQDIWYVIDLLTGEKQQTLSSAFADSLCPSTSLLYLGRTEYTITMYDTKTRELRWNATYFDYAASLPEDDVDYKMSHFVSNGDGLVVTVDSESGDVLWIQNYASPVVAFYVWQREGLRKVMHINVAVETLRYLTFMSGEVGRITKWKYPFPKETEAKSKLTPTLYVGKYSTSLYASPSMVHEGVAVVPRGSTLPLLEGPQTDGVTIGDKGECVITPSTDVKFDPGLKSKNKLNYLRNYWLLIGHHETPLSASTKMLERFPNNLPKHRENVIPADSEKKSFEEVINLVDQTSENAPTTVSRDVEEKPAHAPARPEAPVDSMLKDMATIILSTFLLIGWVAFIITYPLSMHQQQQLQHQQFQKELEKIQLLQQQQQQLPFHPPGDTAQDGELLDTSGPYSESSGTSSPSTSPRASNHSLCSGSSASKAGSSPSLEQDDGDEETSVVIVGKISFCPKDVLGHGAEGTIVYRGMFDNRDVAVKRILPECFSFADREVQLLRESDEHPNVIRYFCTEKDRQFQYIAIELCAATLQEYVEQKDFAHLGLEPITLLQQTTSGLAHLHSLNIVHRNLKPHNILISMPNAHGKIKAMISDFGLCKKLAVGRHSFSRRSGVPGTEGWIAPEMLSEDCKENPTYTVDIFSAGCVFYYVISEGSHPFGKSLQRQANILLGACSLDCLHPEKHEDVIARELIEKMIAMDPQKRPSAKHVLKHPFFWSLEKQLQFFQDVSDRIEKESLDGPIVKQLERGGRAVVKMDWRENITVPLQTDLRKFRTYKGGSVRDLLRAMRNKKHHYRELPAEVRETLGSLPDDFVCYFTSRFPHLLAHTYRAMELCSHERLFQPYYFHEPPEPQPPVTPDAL
Description: IRE1α TR-FRET Competition Binding Assay. As to the method: To determine the affinity of compound binding to the kinase domain of IRE1 alpha, a Time Resolved Fluorescence Resonance Energy Transfer (TR-FRET) competition assay was used. A His-tagged IRE1 alpha kinase dead construct containing the kinase and RNase domains (KR, AA G547-L977, D688N) was expressed in Sf9 insect cells. The purified protein (final concentration 0.006 μM micromolar) was pre-incubated with anti-His Europium labeled antibody (Life Technologies PV5596, final concentration 0.002 μM micromolar) for one hour at 4° C. in 1X TR-FRET Assay Buffer (50 mM HEPES, pH 7.5.10 mM MgCl2, 0.083 mM Brij 35, 1 mM DTT, and 0.1% bovine gamma globulin) prior to addition to test compounds. A fluorescent labeled probe based on an ATP competitive inhibitor (Kinase Tracer 236, Life Technologies PV5592) is added to a final concentration of 0.1 μM (micromolar). Reactions were carried out for one hour at room temperature in a final volume of 20 μL (microliter) in 384 well white ProxiPlates (Perkin Elmer 6008289). Binding of the tracer to the IRE1 protein alpha was detected in an Envision instrument (PerkinElmer) equipped with a TRF laser option and a LANCE/Delfia Dual/Bias D400/D630 mirror (Ex 347 nm, 1st Em 665 nm, 2nd Em 615 nm).
(TR-FRET usually uses a lanthanide donor and a delayed reading to cut background.)
Consider `O=S(=O)(Nc1ccc(Oc2ncccc2-c2ccnc(N[C@H]3CCCNC3)n2)c(F)c1F)c1ccccc1Cl` [US12071425, Compound 227], for which the IC50 (commonly the concentration at which inhibition is half-maximal) amounted to 4.8 nM.

The compound `O=S(=O)(CC(F)(F)F)Nc1c(F)cc(Oc2ncccc2-c2ccnc(N[C@@H]3CNC[C@@H](F)C3)n2)c(F)c1F` [US12071425, Compound 260] had an IC50 of 2.6 nM.

`CN(C)[C@H]1CC[C@H](Nc2nccc(-c3cccnc3Oc3cc(F)c(NS(=O)(=O)CCC(F)(F)F)c(F)c3F)n2)CC1` [US12071425, Compound 382] gave an IC50 of 2 nM.
